The NIST ThermoML archive (doi:10.1016/j.jct.2011.08.016)
± gives the expanded uncertainty stated by the source.

Assay: xn = mol fraction of the nth substance listed
Conditions: Liquid, Vibrating tube method

CCCCCCCCCC [decane] + CCCCCCCC
Conditions	mass density [kg/m3]
333.12 K, 16000 kPa, x2 = 0.2801	707.59 ± 0.49
333.12 K, 17000 kPa, x2 = 0.0616	713.28 ± 0.49
333.12 K, 17000 kPa, x2 = 0.2801	708.43 ± 0.5
333.12 K, 18000 kPa, x2 = 0.0616	714.06 ± 0.5
333.12 K, 18000 kPa, x2 = 0.2801	709.25 ± 0.5
333.12 K, 19000 kPa, x2 = 0.0616	714.88 ± 0.5
333.12 K, 19000 kPa, x2 = 0.2801	710.06 ± 0.51
333.12 K, 20000 kPa, x2 = 0.0616	715.65 ± 0.51
333.12 K, 20000 kPa, x2 = 0.2801	710.83 ± 0.52
333.12 K, 21000 kPa, x2 = 0.0616	716.44 ± 0.52
333.12 K, 21000 kPa, x2 = 0.2801	711.62 ± 0.52
333.12 K, 22000 kPa, x2 = 0.0616	717.15 ± 0.52
333.12 K, 22000 kPa, x2 = 0.2801	712.4 ± 0.53
333.12 K, 23000 kPa, x2 = 0.0616	717.89 ± 0.53
333.12 K, 23000 kPa, x2 = 0.2801	713.12 ± 0.54
333.12 K, 24000 kPa, x2 = 0.0616	718.59 ± 0.54
333.12 K, 24000 kPa, x2 = 0.2801	713.84 ± 0.54
333.12 K, 25000 kPa, x2 = 0.0616	719.3 ± 0.54
333.12 K, 25000 kPa, x2 = 0.2801	714.53 ± 0.55
333.13 K, 1000 kPa, x2 = 0.5314	686.94 ± 0.42
333.13 K, 1000 kPa, x2 = 0.9623	672.68 ± 0.42
333.13 K, 2000 kPa, x2 = 0.5314	687.94 ± 0.42
333.13 K, 2000 kPa, x2 = 0.9623	673.73 ± 0.43
333.13 K, 3000 kPa, x2 = 0.5314	688.95 ± 0.43
333.13 K, 3000 kPa, x2 = 0.9623	674.77 ± 0.43
333.13 K, 4000 kPa, x2 = 0.5314	689.94 ± 0.43
333.13 K, 4000 kPa, x2 = 0.9623	675.8 ± 0.44
333.13 K, 5000 kPa, x2 = 0.5314	690.92 ± 0.44
333.13 K, 5000 kPa, x2 = 0.9623	676.82 ± 0.44
333.13 K, 6000 kPa, x2 = 0.5314	691.92 ± 0.44
333.13 K, 6000 kPa, x2 = 0.9623	677.85 ± 0.45
333.13 K, 7000 kPa, x2 = 0.5314	692.89 ± 0.45
333.13 K, 7000 kPa, x2 = 0.9623	678.88 ± 0.45
333.13 K, 8000 kPa, x2 = 0.5314	693.87 ± 0.45
333.13 K, 8000 kPa, x2 = 0.9623	679.95 ± 0.46
333.13 K, 9000 kPa, x2 = 0.5314	694.82 ± 0.46
333.13 K, 9000 kPa, x2 = 0.9623	680.98 ± 0.46
333.13 K, 10000 kPa, x2 = 0.5314	695.75 ± 0.46
333.13 K, 10000 kPa, x2 = 0.9623	681.98 ± 0.47
333.13 K, 10990 kPa, x2 = 0.5314	696.68 ± 0.47
333.13 K, 10990 kPa, x2 = 0.9623	682.99 ± 0.48
333.13 K, 12000 kPa, x2 = 0.5314	697.6 ± 0.47
333.13 K, 12000 kPa, x2 = 0.9623	683.98 ± 0.48
333.13 K, 13000 kPa, x2 = 0.5314	698.5 ± 0.48
333.13 K, 13000 kPa, x2 = 0.9623	684.93 ± 0.49
333.13 K, 14000 kPa, x2 = 0.5314	699.4 ± 0.49
333.13 K, 14000 kPa, x2 = 0.9623	685.89 ± 0.5
333.13 K, 15000 kPa, x2 = 0.5314	700.28 ± 0.49
333.13 K, 15000 kPa, x2 = 0.9623	686.87 ± 0.5
333.13 K, 16000 kPa, x2 = 0.5314	701.15 ± 0.5
333.13 K, 16000 kPa, x2 = 0.9623	687.76 ± 0.51
333.13 K, 17000 kPa, x2 = 0.5314	702 ± 0.5
333.13 K, 17000 kPa, x2 = 0.9623	688.67 ± 0.52
333.13 K, 18000 kPa, x2 = 0.5314	702.88 ± 0.51
333.13 K, 18000 kPa, x2 = 0.9623	689.57 ± 0.52
333.13 K, 19000 kPa, x2 = 0.5314	703.68 ± 0.52
333.13 K, 19000 kPa, x2 = 0.9623	690.49 ± 0.53
333.13 K, 20000 kPa, x2 = 0.5314	704.48 ± 0.52
333.13 K, 20000 kPa, x2 = 0.9623	691.35 ± 0.54
333.13 K, 21000 kPa, x2 = 0.5314	705.27 ± 0.53
333.13 K, 21000 kPa, x2 = 0.9623	692.18 ± 0.54
333.13 K, 22000 kPa, x2 = 0.5314	706.05 ± 0.54
333.13 K, 22000 kPa, x2 = 0.9623	693 ± 0.55
333.13 K, 23000 kPa, x2 = 0.5314	706.81 ± 0.54
333.13 K, 23000 kPa, x2 = 0.9623	693.78 ± 0.56
333.13 K, 24000 kPa, x2 = 0.5314	707.53 ± 0.55
333.13 K, 24000 kPa, x2 = 0.9623	694.55 ± 0.57
333.13 K, 25000 kPa, x2 = 0.5314	708.26 ± 0.56
333.13 K, 25000 kPa, x2 = 0.9623	695.28 ± 0.57
333.14 K, 1000 kPa, x2 = 0.7736	679.32 ± 0.42
333.14 K, 2000 kPa, x2 = 0.7736	680.38 ± 0.42
333.14 K, 3000 kPa, x2 = 0.7736	681.42 ± 0.43
333.14 K, 4000 kPa, x2 = 0.7736	682.44 ± 0.43
333.14 K, 5000 kPa, x2 = 0.7736	683.46 ± 0.44
333.14 K, 6000 kPa, x2 = 0.7736	684.5 ± 0.44
333.14 K, 7000 kPa, x2 = 0.7736	685.49 ± 0.45
333.14 K, 8000 kPa, x2 = 0.7736	686.5 ± 0.46
333.14 K, 9000 kPa, x2 = 0.7736	687.47 ± 0.46
333.14 K, 10000 kPa, x2 = 0.7736	688.42 ± 0.47
333.14 K, 10990 kPa, x2 = 0.7736	689.42 ± 0.47
333.14 K, 12000 kPa, x2 = 0.7736	690.37 ± 0.48
333.14 K, 13000 kPa, x2 = 0.7736	691.27 ± 0.48
333.14 K, 14000 kPa, x2 = 0.7736	692.21 ± 0.49
333.14 K, 15000 kPa, x2 = 0.7736	693.1 ± 0.5
333.14 K, 16000 kPa, x2 = 0.7736	694.02 ± 0.5
333.14 K, 17000 kPa, x2 = 0.7736	694.9 ± 0.51
333.14 K, 18000 kPa, x2 = 0.7736	695.77 ± 0.52
333.14 K, 19000 kPa, x2 = 0.7736	696.62 ± 0.52
333.14 K, 20000 kPa, x2 = 0.7736	697.46 ± 0.53
333.14 K, 21000 kPa, x2 = 0.7736	698.28 ± 0.54
333.14 K, 22000 kPa, x2 = 0.7736	699.09 ± 0.54
333.14 K, 23000 kPa, x2 = 0.7736	699.86 ± 0.55
333.14 K, 24000 kPa, x2 = 0.7736	700.61 ± 0.56
333.14 K, 25000 kPa, x2 = 0.7736	701.34 ± 0.57
